# According to patent publication US9980943B2, “Methods of treating muscular dystrophy” (BOARD OF REGENTS OF THE NEVADA SYSTEM OF HIGHER EDUCATION, …, priority 2013, dated 2018):
# Legend:
# Type in all cases: cell-based, mouse
# [1] = test system: α7 integrin (LacZ reporter in α7βgal+/− myoblasts); assay: Myoblast α7+/LacZ integrin FDG assay (Burkin assay in myoblasts, 96-well); conditions: α7+/LacZ myoblasts, 96-well
# [2] = test system: α7 integrin (LacZ reporter in α7+/LacZ myotubes); assay: Myotube α7 integrin FDG assay (Burkin assay in myotubes, 96-well); conditions: myotubes
# [3] = test system: β-galactosidase in CMV-LacZ C2C12 myotubes; assay: CMV-LacZ secondary screen in C2C12 myotubes (β-Gal stabilizing assay); conditions: C2C12 CMV-LacZ myotubes, fold relative to DMSO
# Summary of the method: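 CMV-LacZ C2C12 line (clonal, FDG-screened); myoblasts/myotubes dosed 0.5–40 μM (0.5, 1, 5, 10, 20, 40 μM); n=2 per point; β-gal stabilization read-out.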
SMILES,"Burkin Assay in Myoblasts, signal relative to DMSO ([1]; 0.5 uM)","Burkin Assay in Myoblasts, signal relative to DMSO ([1]; 1 uM)","Burkin Assay in Myoblasts, signal relative to DMSO ([1]; 5 uM)","Burkin Assay in Myoblasts, signal relative to DMSO ([1]; 10 uM)","CMV-LACZ in Myotubes, signal relative to DMSO ([3]; 5 uM)","CMV-LACZ in Myotubes, signal relative to DMSO ([3]; 10 uM)","CMV-LACZ in Myotubes, signal relative to DMSO ([3]; 20 uM)","CMV-LACZ in Myotubes, signal relative to DMSO ([3]; 40 uM)","Burkin Assay in Myoblasts, value relative to DMSO ([1]; 0.5 uM)","Burkin Assay in Myoblasts, value relative to DMSO ([1]; 1 uM)","Burkin Assay in Myoblasts, value relative to DMSO ([1]; 5 uM)","Burkin Assay in Myoblasts, value relative to DMSO ([1]; 10 uM)","Burkin Assay in Myoblasts, value relative to DMSO ([1]; 20 uM)","Burkin Assay in Myoblasts, value relative to DMSO ([1]; 40 uM)",Burkin Assay in Myotubes (signal relative to DMSO) ([2]; 0.5 uM),Burkin Assay in Myotubes (signal relative to DMSO) ([2]; 1 uM),Burkin Assay in Myotubes (signal relative to DMSO) ([2]; 5 uM),Burkin Assay in Myotubes (signal relative to DMSO) ([2]; 10 uM),Burkin Assay in Myotubes (signal relative to DMSO) ([2]; 20 uM),Burkin Assay in Myotubes (signal relative to DMSO) ([2]; 40 uM),also measured
COc1ccc(S(=O)(=O)N2CCCCCC2)cc1C(=O)N1CCN(c2ccccc2O)CC1 [MLS001150751-01],1.114,1.059,0.9941,0.9573,0.9134,0.8336,0.992,0.889,–,–,–,–,–,–,–,–,–,–,–,–,"Burkin Assay in Myoblasts, signal relative to DMSO ([1]; 20 uM): 1.079; Burkin Assay in Myoblasts, signal relative to DMSO ([1]; 40 uM): 0.8454; Burkin Assay in Myotubes, α7 integrin LacZ reporter signal relative to DMSO ([2]; 0.5 uM): 1.0993; Burkin Assay in Myotubes, α7 integrin LacZ reporter signal relative to DMSO ([2]; 1 uM): 0.9504; Burkin Assay in Myotubes, α7 integrin LacZ reporter signal relative to DMSO ([2]; 5 uM): 1.254; Burkin Assay in Myotubes, α7 integrin LacZ reporter signal relative to DMSO ([2]; 10 uM): 1.023; Burkin Assay in Myotubes, α7 integrin LacZ reporter signal relative to DMSO ([2]; 20 uM): 1.0842; Burkin Assay in Myotubes, α7 integrin LacZ reporter signal relative to DMSO ([2]; 40 uM): 0.5343"
O=C(COc1cc2oc(=O)c3c(c2cc1Cl)CCCC3)NCC1CCC(C(=O)O)CC1 (centres unmarked) [MLS001157804-01],–,–,–,–,0.703,0.9842,1.05,1.07,0.879,0.9385,0.998,1.117,1.052,1.104,1.045,1.013,1.031,1.083,1.069,1.188,–
Cc1ccc(C(=O)C(C)OC(=O)CNC(=O)c2ccc(Br)o2)cc1 (centres unmarked) [MLS001160885-01],1.05,0.9356,0.9402,0.9147,1.167,0.9009,0.9095,0.8319,–,–,–,–,–,–,–,–,–,–,–,–,"Burkin Assay in Myoblasts, signal relative to DMSO ([1]; 20 uM): 1.021; Burkin Assay in Myoblasts, signal relative to DMSO ([1]; 40 uM): 0.7914; Burkin Assay in Myotubes, α7 integrin LacZ reporter signal relative to DMSO ([2]; 0.5 uM): 1; Burkin Assay in Myotubes, α7 integrin LacZ reporter signal relative to DMSO ([2]; 1 uM): 0.9569; Burkin Assay in Myotubes, α7 integrin LacZ reporter signal relative to DMSO ([2]; 5 uM): 1.108; Burkin Assay in Myotubes, α7 integrin LacZ reporter signal relative to DMSO ([2]; 10 uM): 1.146; Burkin Assay in Myotubes, α7 integrin LacZ reporter signal relative to DMSO ([2]; 20 uM): 1.018; Burkin Assay in Myotubes, α7 integrin LacZ reporter signal relative to DMSO ([2]; 40 uM): 0.92"
CC(Oc1ccccc1)C(=O)N1CCN(C(=O)C(C)Oc2ccccc2)CC1 (centres unmarked) [MLS001162337-01],–,–,–,–,0.9904,0.9593,0.8491,1.05,1.123,1.127,1.091,1.071,0.8789,0.8149,0.6986,0.885,1.009,0.9738,1.17,1.014,–
COc1cc(Cl)cc(CN2CCC(CCC(=O)NC3CC3)CC2)c1OC [MLS001162872-01],–,–,–,–,0.7855,1.084,1.061,0.9794,0.9547,0.949,0.9025,0.904,0.783,0.7773,1.13,1.051,0.8369,1.031,1.034,0.8876,–
